These results are taken from ChEMBL document CHEMBL5291721, “A preclinical secondary pharmacology resource illuminates target-adverse drug reaction associations of marketed drugs” (Nat Commun, 2023).

As usually defined, the AC50 is the concentration giving half of the maximal activity seen.

One test deals with D(1A) dopamine receptor (Homo sapiens, UniProt P21728). In kind it is functional, cell-based.
A further test concerns the target T1, Progesterone receptor (Homo sapiens, UniProt P06401).
T1 sequence (P06401 whole entry): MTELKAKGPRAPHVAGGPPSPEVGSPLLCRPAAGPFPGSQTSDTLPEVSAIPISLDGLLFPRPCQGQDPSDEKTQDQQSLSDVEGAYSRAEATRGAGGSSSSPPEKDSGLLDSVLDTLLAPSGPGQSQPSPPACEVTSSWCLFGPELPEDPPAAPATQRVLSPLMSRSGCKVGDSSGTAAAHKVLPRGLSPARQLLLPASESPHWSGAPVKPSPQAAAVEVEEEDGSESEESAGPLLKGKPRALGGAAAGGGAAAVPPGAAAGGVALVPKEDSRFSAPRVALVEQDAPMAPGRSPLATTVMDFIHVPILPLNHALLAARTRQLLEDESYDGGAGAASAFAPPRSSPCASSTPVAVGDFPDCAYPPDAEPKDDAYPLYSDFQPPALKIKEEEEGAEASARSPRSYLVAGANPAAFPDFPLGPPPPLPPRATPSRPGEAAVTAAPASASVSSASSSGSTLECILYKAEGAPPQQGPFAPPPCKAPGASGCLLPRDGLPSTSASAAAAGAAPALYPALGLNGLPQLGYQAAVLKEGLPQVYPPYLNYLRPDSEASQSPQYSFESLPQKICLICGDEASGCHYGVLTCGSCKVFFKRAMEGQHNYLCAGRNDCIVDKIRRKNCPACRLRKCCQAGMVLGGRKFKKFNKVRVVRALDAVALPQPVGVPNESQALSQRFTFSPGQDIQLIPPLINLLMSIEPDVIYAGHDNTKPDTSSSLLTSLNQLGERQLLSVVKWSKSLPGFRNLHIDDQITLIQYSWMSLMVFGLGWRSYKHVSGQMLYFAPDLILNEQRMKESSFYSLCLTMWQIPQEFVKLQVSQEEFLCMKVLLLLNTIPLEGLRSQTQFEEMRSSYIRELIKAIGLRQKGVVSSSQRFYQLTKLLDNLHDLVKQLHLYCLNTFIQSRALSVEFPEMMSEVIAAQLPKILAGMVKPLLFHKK
It is filed as functional.

The target of test [1] is Voltage-dependent L-type calcium channel subunit alpha-1C (Rattus norvegicus, UniProt P22002). In kind it is functional.
Voltage-dependent L-type calcium channel subunit alpha-1C, sequence (P22002 whole entry): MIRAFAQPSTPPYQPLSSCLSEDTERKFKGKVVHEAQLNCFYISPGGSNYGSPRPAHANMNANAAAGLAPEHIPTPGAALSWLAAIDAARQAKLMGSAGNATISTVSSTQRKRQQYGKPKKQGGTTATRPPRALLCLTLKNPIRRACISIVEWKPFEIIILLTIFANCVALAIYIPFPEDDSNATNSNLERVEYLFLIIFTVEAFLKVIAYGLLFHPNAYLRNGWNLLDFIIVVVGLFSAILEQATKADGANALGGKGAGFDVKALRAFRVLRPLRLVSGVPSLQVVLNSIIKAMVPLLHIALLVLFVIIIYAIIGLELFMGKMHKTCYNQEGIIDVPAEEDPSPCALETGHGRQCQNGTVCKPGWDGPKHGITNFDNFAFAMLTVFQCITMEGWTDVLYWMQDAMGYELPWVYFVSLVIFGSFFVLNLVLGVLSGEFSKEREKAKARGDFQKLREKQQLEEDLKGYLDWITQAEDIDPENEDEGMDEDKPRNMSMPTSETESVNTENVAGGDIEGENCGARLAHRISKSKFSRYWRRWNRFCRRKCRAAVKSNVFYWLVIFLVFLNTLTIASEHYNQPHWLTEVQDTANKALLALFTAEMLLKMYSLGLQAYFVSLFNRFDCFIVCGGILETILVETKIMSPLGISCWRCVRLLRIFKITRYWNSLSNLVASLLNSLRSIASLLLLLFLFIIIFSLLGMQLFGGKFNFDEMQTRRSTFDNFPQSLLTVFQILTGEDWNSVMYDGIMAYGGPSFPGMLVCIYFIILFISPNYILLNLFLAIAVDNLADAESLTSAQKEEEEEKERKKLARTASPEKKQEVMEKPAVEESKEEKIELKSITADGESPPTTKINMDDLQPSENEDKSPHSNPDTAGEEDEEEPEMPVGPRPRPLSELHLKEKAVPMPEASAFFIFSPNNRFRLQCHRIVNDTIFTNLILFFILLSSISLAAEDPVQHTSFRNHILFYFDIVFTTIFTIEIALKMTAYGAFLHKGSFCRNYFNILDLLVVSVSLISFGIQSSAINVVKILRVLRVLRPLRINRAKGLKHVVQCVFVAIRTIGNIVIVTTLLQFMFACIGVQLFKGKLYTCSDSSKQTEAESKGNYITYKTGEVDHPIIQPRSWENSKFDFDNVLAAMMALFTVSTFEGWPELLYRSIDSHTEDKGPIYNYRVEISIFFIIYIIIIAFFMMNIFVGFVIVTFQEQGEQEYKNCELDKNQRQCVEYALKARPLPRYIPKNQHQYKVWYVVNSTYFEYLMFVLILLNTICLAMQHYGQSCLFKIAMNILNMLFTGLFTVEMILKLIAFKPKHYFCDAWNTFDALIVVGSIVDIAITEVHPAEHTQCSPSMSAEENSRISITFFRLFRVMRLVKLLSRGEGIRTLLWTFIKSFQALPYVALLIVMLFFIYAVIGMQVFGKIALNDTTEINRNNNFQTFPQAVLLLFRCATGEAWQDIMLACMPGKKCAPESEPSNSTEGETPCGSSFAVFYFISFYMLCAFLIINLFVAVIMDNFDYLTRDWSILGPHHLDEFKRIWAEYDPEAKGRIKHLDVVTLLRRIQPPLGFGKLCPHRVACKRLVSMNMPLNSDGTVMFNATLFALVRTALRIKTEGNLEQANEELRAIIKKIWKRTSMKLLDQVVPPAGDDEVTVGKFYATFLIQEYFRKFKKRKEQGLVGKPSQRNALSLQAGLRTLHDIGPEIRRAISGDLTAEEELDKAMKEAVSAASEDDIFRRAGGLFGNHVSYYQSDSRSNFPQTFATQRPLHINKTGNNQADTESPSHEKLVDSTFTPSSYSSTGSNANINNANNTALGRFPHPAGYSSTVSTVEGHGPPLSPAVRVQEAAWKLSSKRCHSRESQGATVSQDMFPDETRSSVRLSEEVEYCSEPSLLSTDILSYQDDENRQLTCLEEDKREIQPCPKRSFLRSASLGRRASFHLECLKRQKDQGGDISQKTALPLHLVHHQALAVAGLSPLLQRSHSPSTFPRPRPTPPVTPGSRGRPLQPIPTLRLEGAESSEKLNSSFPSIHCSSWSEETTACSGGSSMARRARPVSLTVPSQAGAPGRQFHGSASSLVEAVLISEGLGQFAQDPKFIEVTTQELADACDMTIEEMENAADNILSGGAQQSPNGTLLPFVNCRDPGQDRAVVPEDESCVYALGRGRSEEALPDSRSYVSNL
For test [2], the target named is T2, Cholecystokinin receptor type A (Homo sapiens, UniProt P32238).
T2 sequence (P32238 whole entry): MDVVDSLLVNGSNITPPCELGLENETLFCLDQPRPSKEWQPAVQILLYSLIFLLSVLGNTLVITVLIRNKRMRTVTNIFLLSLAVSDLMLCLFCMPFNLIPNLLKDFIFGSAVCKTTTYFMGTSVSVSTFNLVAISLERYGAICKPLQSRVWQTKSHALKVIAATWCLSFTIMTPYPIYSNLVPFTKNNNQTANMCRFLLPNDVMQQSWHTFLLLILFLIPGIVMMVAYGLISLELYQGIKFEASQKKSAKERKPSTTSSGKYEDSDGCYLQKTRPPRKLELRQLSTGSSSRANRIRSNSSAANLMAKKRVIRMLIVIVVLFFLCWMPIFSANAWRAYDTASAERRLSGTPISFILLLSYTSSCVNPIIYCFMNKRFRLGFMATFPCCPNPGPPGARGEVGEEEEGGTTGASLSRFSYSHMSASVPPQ

For test [3], the target named is T3, Amine oxidase [flavin-containing] A (Homo sapiens, UniProt P21397).
T3 sequence (P21397 whole entry): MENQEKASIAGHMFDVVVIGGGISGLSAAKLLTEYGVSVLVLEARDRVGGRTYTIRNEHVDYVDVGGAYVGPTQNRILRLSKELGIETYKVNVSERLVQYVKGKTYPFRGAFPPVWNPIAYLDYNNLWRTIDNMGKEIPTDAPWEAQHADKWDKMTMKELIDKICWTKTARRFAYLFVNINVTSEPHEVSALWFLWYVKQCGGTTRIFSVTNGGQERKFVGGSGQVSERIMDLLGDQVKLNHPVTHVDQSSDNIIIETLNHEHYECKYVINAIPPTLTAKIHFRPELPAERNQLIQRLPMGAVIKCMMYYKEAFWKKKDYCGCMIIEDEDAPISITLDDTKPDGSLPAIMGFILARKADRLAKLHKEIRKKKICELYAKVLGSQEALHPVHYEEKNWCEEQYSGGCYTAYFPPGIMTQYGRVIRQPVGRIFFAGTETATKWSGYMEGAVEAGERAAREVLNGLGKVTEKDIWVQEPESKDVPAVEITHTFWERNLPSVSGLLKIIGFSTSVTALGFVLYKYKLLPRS
It is filed as functional.

A further test deals with Histamine H2 receptor (Homo sapiens, UniProt P25021). It is filed as functional, cell-based.
Histamine H2 receptor, sequence (P25021 whole entry): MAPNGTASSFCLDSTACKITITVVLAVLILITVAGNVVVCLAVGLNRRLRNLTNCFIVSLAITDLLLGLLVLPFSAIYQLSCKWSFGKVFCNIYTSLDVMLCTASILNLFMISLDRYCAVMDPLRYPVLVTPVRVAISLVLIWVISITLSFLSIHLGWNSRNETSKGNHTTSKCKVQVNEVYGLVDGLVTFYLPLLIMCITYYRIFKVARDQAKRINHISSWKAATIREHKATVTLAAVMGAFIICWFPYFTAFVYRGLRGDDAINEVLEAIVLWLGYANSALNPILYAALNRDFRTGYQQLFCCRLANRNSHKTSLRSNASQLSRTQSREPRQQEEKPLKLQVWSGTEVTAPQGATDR
Test [4] deals with T4, Alpha-2A adrenergic receptor (Homo sapiens, UniProt P08913).
T4 sequence (P08913 whole entry): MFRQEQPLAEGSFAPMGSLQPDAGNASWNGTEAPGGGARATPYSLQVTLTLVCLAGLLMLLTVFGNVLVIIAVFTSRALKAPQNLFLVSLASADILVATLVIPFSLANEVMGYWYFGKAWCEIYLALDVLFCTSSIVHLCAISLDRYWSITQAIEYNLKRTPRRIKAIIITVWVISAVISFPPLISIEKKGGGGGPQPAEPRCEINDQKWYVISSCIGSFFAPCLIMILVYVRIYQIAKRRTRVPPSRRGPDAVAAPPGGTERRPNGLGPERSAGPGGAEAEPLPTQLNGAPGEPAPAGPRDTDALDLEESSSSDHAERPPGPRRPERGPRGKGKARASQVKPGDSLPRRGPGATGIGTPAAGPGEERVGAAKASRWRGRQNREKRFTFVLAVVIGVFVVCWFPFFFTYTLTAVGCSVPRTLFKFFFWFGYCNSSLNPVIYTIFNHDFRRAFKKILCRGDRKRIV
In kind it is functional, cell-based.

Test [5] addresses Gamma-aminobutyric acid receptor subunit alpha-1 (Rattus norvegicus, UniProt P62813). It is filed as functional.
For test [6], the target named is Neuronal acetylcholine receptor subunit alpha-4 (Homo sapiens, UniProt P43681).
Neuronal acetylcholine receptor subunit alpha-4, sequence (P43681 whole entry): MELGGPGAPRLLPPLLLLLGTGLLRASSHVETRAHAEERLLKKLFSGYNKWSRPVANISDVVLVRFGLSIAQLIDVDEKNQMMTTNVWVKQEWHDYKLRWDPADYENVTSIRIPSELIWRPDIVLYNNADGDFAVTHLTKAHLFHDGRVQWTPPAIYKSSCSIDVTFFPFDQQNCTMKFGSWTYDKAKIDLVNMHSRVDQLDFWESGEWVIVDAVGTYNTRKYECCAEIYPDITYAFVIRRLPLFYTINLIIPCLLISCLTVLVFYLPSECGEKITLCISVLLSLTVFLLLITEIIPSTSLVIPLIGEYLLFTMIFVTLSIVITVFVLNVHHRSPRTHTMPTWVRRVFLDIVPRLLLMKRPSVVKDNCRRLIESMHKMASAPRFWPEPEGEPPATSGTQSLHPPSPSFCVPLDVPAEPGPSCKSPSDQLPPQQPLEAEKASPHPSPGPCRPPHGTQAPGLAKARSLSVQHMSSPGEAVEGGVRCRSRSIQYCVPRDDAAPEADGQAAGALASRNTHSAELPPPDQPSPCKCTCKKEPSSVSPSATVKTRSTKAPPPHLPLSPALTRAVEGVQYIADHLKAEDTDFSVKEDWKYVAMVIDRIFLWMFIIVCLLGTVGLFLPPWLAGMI
Further: assay procedure not described here.

D(1A) dopamine receptor, sequence (P21728 whole entry): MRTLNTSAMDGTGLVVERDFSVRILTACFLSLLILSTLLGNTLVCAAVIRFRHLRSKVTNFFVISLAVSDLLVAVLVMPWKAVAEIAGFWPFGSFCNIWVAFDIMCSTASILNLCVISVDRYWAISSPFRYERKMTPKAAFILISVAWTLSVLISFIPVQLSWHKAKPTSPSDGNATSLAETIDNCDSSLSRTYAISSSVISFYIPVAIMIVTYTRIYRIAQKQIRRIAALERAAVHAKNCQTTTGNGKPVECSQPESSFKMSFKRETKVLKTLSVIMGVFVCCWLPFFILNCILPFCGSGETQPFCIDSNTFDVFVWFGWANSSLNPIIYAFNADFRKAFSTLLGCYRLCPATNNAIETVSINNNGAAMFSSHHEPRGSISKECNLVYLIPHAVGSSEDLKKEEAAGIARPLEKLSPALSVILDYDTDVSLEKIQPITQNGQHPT
Gamma-aminobutyric acid receptor subunit alpha-1, sequence (P62813 whole entry): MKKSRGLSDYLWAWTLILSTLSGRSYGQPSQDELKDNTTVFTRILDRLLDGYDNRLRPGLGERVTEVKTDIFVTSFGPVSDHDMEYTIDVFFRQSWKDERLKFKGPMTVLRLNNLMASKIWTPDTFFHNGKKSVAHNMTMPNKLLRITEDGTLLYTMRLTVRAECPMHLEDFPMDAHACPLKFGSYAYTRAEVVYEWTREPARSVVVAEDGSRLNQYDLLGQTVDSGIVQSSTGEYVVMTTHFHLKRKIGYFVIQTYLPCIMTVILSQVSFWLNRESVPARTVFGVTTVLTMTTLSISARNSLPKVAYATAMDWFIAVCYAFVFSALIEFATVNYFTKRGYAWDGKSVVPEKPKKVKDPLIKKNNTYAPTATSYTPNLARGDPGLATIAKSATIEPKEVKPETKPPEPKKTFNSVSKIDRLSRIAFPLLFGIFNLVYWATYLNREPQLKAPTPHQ

On to `COc1ccc(/C=C/C(=O)Nc2ccccc2C(=O)O)cc1OC`, for which the AC50 (on D(1A) dopamine receptor; at Progesterone receptor; in [1]; in test [2]; in [3]; on Histamine H2 receptor) was greater than 30 µM throughout. Also, the AC50 in test [4], in test [5] and in test [6] was greater than 30 µM throughout.

`NCCCC(O)(P(=O)(O)O)P(=O)(O)O` [ALENDRONIC ACID]: the concentration at half-maximal activity (AC50) in test [1] was greater than 10 µM; in test [2] it was greater than 30 µM; in test [3], greater than 10 µM; at Histamine H2 receptor, greater than 10 µM; in test [4] it was greater than 10 µM; in test [5], greater than 10 µM. This compound displayed a half-maximal activity concentration (AC50) in test [6] greater than 10 µM.

Turning to `Nc1ccc(C(=O)O)c(O)c1` [AMINOSALICYLIC ACID], the AC50 (at D(1A) dopamine receptor; at Progesterone receptor; in test [2]; in test [3]; at Histamine H2 receptor; in [4]) was greater than 30 µM each time. In addition, the AC50 in test [5] and in test [6] was greater than 30 µM each time.

Regarding `COc1cc(OC)c(C(=O)CCCN2CCCC2)c(OC)c1` [BUFLOMEDIL], the AC50 (at D(1A) dopamine receptor; on Progesterone receptor; in [1]; in test [2]; in test [3]; on Histamine H2 receptor) was greater than 30 µM in each case. For the same compound, the AC50 is 6.1 µM in test [4], greater than 30 µM in [5] and greater than 30 µM in test [6].

Turning to `CS(=O)(=O)OCCCCOS(C)(=O)=O` [BUSULFAN], the AC50 (on D(1A) dopamine receptor; on Progesterone receptor; in [2]; in [3]; on Histamine H2 receptor; in test [4]) was greater than 30 µM each time. Moreover, the AC50 in test [5] and in [6] was greater than 30 µM in each case.

As for `C=CC1=C(C(=O)O)N2C(=O)[C@@H](NC(=O)/C(=N\OCC(=O)O)c3csc(N)n3)[C@H]2SC1` [CEFIXIME], the AC50 (on D(1A) dopamine receptor; at Progesterone receptor; in [2]; in test [3]; at Histamine H2 receptor; in test [4]) was greater than 30 µM each time. The AC50 in [6] was greater than 30 µM.

For `COc1cccc2c1C(=O)c1c(O)c3c(c(O)c1C2=O)C[C@@](O)(C(C)=O)C[C@@H]3O[C@H]1C[C@H](N)[C@H](O)[C@H](C)O1` [DAUNORUBICIN], the AC50 on D(1A) dopamine receptor was greater than 30 µM; on Progesterone receptor, 7.42 µM; in test [1] it was greater than 30 µM; in test [2], 24 µM; in test [3], greater than 30 µM; at Histamine H2 receptor, greater than 30 µM. In addition, the concentration at half-maximal activity (AC50) in test [5] was greater than 30 µM; in test [6] it was 10.8 µM.

Regarding `C[C@@H]1C[C@H]2[C@@H]3C[C@H](F)C4=CC(=O)C=C[C@]4(C)[C@@]3(F)[C@@H](O)C[C@]2(C)[C@H]1C(=O)CO` [DIFLUCORTOLONE], the AC50 is 0.052 µM on Progesterone receptor and greater than 30 µM in test [3].

As for `CC(=O)OCC(CCn1cnc2cnc(N)nc21)COC(C)=O` [FAMCICLOVIR], the AC50 at D(1A) dopamine receptor was greater than 10 µM; in [1] it was greater than 10 µM; in test [2] it was greater than 30 µM; in test [3], greater than 10 µM; at Histamine H2 receptor, greater than 10 µM; in test [4], greater than 10 µM. For the same compound, the AC50 in test [5] and in test [6] was greater than 10 µM in each case.

In the case of `COC1=C(OC)C(=O)C(CCCCCCCCCCO)=C(C)C1=O` [IDEBENONE], the AC50 at D(1A) dopamine receptor is greater than 30 µM; in [1], greater than 10 µM; in [2], greater than 30 µM; in test [3], 8.5 µM; at Histamine H2 receptor, greater than 10 µM; in test [4], greater than 10 µM. In addition, the AC50 in test [5] and in [6] was greater than 10 µM each time.

With `CCn1cc(C(=O)O)c(=O)c2cc(F)c(N3CCN(C)CC3)cc21` [PEFLOXACIN], the AC50 (at D(1A) dopamine receptor; at Progesterone receptor; in test [2]; in test [3]; on Histamine H2 receptor; in test [4]) was greater than 30 µM in each case. The AC50 in [5] was greater than 30 µM.

As to `C[n+]1ccccc1/C=N/O` [PRALIDOXIME], the AC50 (on D(1A) dopamine receptor; in [3]; on Histamine H2 receptor; in [4]; in [5]) was greater than 30 µM each time.

As for `CCCNC(C)C(=O)Nc1ccccc1C` (stereo not given) [PRILOCAINE], the half-maximal activity concentration (AC50) (on D(1A) dopamine receptor; at Progesterone receptor; in test [2]; in test [3]; on Histamine H2 receptor; in test [4]) was greater than 30 µM in each case. The AC50 in [5] and in test [6] was greater than 30 µM each time.

With `CC(C)CC(N(C)C)C1(c2ccc(Cl)cc2)CCC1` (stereo not given) [SIBUTRAMINE], the AC50 on D(1A) dopamine receptor is greater than 10 µM; in test [1], greater than 10 µM; in [2], greater than 30 µM; in test [3], greater than 10 µM; at Histamine H2 receptor, greater than 10 µM; in [4], 30 µM. In addition, the AC50 in test [5] and in test [6] was greater than 10 µM in each case.

In the case of `COc1cc2nccc(Oc3ccc(NC(=O)Nc4cc(C)on4)c(Cl)c3)c2cc1OC` [TIVOZANIB], the values for the AC50 (at Progesterone receptor; in [3]; in test [6]) were greater than 3 µM, greater than 30 µM and greater than 3 µM, respectively.

Take `CN1[C@@H]2CC[C@H]1C[C@@H](OC(=O)c1c[nH]c3ccccc13)C2` [TROPISETRON]: the AC50 is greater than 30 µM at D(1A) dopamine receptor; greater than 30 µM in test [1]; greater than 10 µM in test [2]; greater than 30 µM in test [3]; greater than 30 µM on Histamine H2 receptor; greater than 30 µM in [4]. Also, the AC50 was 0.5 µM in test [5] and 5.2 µM in test [6].

As to `COc1ccc(C(CN(C)C)C2(O)CCCCC2)cc1` (stereo not given) [VENLAFAXINE], the AC50 on D(1A) dopamine receptor was greater than 30 µM; in [2], greater than 30 µM; in test [3], greater than 10 µM; on Histamine H2 receptor, greater than 30 µM; in test [4], greater than 10 µM; in [5] it was greater than 10 µM. In test [6], this compound gave an AC50 greater than 10 µM.
